According to paper PMC7509492, “To What Extent Do Fluorophores Bias the Biological Activity of Peptides? A Practical Approach Using Membrane-Active Peptides as Models” (Frontiers in Bioengineering and Biotechnology, 2020):
Ends that are not written are not given here. Peptide text beside a SMILES is read from it. * marks the point of attachment. RhodamineB = CCN(CC)c1ccc2c(-c3ccccc3C(=O)*)c3ccc(=[N+](CC)CC)cc-3oc2c1; X1 = CC[N+]1=C(C=CC=C2N(CCCCCC(=O)*)c3ccccc3C2(C)C)C(C)(C)c2ccccc21; 5FAM = O=C1OC2(c3ccc(O)cc3Oc3cc(O)ccc32)c2ccc(C(=O)*)cc21

Assays:
MDA-MB-231 cells = assay: CellTiter-Blue cell viability assay, MDA-MB-231; type: cell-based, human; conditions: peptide 0.01-100 μM, mean ± SD, triplicates of three independent experiments; for Cytotoxicity MDA-MB-231 cells IC10: Table 1, concentration causing 10% cell death; for Cytotoxicity MDA-MB-231 cells IC10 / IC90: 24 h; for IC50: Table 1, 24 h, read-out: Cytotoxicity MDA-MB-231 cells IC50; for IC90: Table 1, concentration causing 90% cell death, read-out: Cytotoxicity MDA-MB-231 cells IC90
Description: (§1) Peptides cytotoxicity against both HBEC-5i and MDA-MB-231 cells was determined using CellTiter-Blue® Cell Viability Assay, according to the manufacturer’s instructions. The assay is based on the ability of viable cells to reduce resazurin into resorufin, a highly fluorescent metabolite. […] Therefore, using this methodology is possible to distinguish between metabolic and non-metabolic cells and indirectly determine the cytotoxicity of peptides. Briefly, HBEC-5i and MDA-MB-231 cells were carefully detached from T-flasks, as described previously, and seeded 15,000/100 and 10,000/100 μL, respectively, in 96-well plates (Corning, United States) and incubated for 24 h. After medium removal, cells were washed two times with 1× PBS and 100 μL of previously diluted peptides (range between 0.01 and 100 μM) in either DMEM or DMEM:F12 medium were added to MDA-MB-231 or HBEC-5i cells, respectively. After 24 h incubation, cells were washed two times with 1× PBS, and 20 μL of CellTiter-Blue® Reagent (diluted in 100 μL of medium) was added to each well and incubated for 3 h in a humidified atmosphere of 5% CO2 at 37°C. The fluorescence intensity was measured at λ with an excitation of 560 nm and maximum emission at 590 nm using the infinite F200 TECAN plate reader. Medium and 1% Triton X-100-containing medium were used as positive controls (100% cell viability) and negative controls (0% cell viability), respectively. Cell viability (%) was determined using the following equation:
(§2) (7) CellViability=FP-FNC/FPC-FNC×100
(§3) Fp is the fluorescence intensity of peptide-treated cells, FNC is the fluorescence intensity for negative controls, and FPC is the fluorescence intensity for positive controls.
(§4) Experiments were performed on different days using independently grown cell cultures.
(§5) FIGURE 4 In vitro cytotoxicity unlabeled- and labeled-peptides. (A,B) Cytotoxicity against HBEC-5i cells. (C,D) Cytotoxicity against MDA-MB-231 cells. 1.5 × 10^4 and 1.0 × 10^4 cells of HBEC-5i and MDA-MB-231 cells, respectively, were incubated with various concentrations of peptides (range from 0.01 to 100 μM). The percentage of viability was determined using CellTiter® Blue reagent assay. […] Error bars, S.D.

[1] = CellTiter-Blue cell viability assay, MDA-MB-231; type: cell-based, human; conditions: human, MDA-MB-231 cells, mean ± SD, triplicates of three independent experiments; for IC90 at 24 h: Table 1, concentration causing 90% cell death, peptide 0.01-100 μM, read-out: Cytotoxicity MDA-MB-231 cells IC90; for IC50 at 24 h: Table 1, peptide 0.01-100 μM, read-out: Cytotoxicity MDA-MB-231 cells IC50
Description: as §1, §2, §3, §4, §5

human RBCs = assay: Hemolytic activity on human red blood cells; conditions: Table 1, human RBCs in 1x PBS pH 7.4, 24 h, 37°C, peptide 0.01-100 μM, mean ± SD, triplicates of three independent experiments; for Hemolytic activity HC10: concentration causing 10% hemolysis, hemoglobin absorbance 570 nm; for Hemolytic activity HC50: concentration causing 50% hemolysis; for Hemolytic activity HC50 / Hemolytic activity HC90: absorbance 570 nm; for Hemolytic activity HC90: concentration causing 90% hemolysis
Description: Fresh human blood was collected in EDTA tubes and centrifuged at 1,000 × g for 10 min at 4°C. The supernatant was discharged, and the pellet containing RBCs was washed three times with 1× PBS (137 mM NaCl, 2.7 mM KCl, 10 mM Na2HPO4, and 1.8 mM KH2PO4, pH 7.4) and resuspended in 1× PBS to obtain a 2.0% (v/v) suspension. Then, RBCs were added to centrifuge tubes containing two-fold serially diluted peptides to a final concentration ranging from 0.01 to 100 μM. The suspension was incubated for 24 h at 37°C with gentle stirring. After that, samples were centrifuged for 2 min at 1,000 × g. Supernatants were transferred to 96-well plates, and the hemoglobin released measured by absorbance at 570 nm in an Infinite F200 TECAN plate reader. 1× PBS with no peptides and Triton X-100 at 1 and 4% (v/v) were used as negative and positive controls, respectively. Hemolytic activity (%) was determined using the following equation:
(2) Hemolyticactivity(%)=AbsPT-AbsNC/AbsPC-AbsNC
where, AbsPT is the absorbance of treated samples, AbsNC is the absorbance from negative control, and AbsPC absorbance from positive control.
HC50 values were determined using the GraphPad Prism 7.0 software using a log(inhibitor) vs. normalized response. Experiments were performed on different days using independent blood donors.
(range from 0.01 to 100 μM). The percentage of hemolysis was determined by the absorbance of hemoglobin released into the supernatant. Melittin was included as a control peptide with hemolytic properties. The values were obtained from triplicates of three independent experiments. Error bars, S.D.

Row | Molecule | Cytotoxicity MDA-MB-231 cells IC10 (MDA-MB-231 cells) [µM] | IC90 at 24 h [1] [µM] | IC50 at 24 h [1] [µM] | Hemolytic activity HC10 (human RBCs) [µM] | Hemolytic activity HC50 (human RBCs) [µM] | Hemolytic activity HC90 (human RBCs) [µM] | IC50 (MDA-MB-231 cells) [µM] | IC90 (MDA-MB-231 cells) [µM]
1 | CC[C@H](C)[C@H](NC(=O)[C@H](CCCCN)NC(=O)[C@H](CCCCN)NC(=O)[C@H](CC(C)C)NC(=O)[C@H](CCCNC(=N)N)NC(=O)[C@H](CCCCN)NC(=O)[C@H](CCCCN)NC(=O)c1ccccc1-c1c2ccc(=[N+](CC)CC)cc-2oc2cc(N(CC)CC)ccc12)C(=O)N[C@@H](Cc1ccccc1)C(=O)N[C@@H](CCCCN)C(=O)N[C@@H](CCCCN)C(=O)N1CCC[C@H]1C(=O)N[C@@H](CCSC)C(=O)N[C@H](C(=O)N[C@H](C(=O)NCC(=O)N[C@H](C(=O)N[C@H](C(=O)N[C@H](C(=O)N1CCC[C@H]1C(=O)N[C@@H](Cc1ccccc1)C(N)=O)[C@@H](C)CC)[C@@H](C)O)C(C)C)[C@@H](C)CC)C(C)C [RhB-Ctn[15-34]] (RhodamineB-KKRLKKIFKKPMVIGVTIPF-NH2) | 2.97 ± 0.98 | > 200 | > 200 | 3.29 ± 1.32 | 61.43 ± 4.33 | >200 | – | –
2 | TF3-WRRRYRRWRRRRRWRRRPRR-amide [TF3-vCPP2319] | 1.05 ± 0.21 | – | – | 2.83 ± 0.97 | >200 | >200 | 4.3 ± 0.03 | 17 ± 1.58
3 | CC[C@H](C)[C@H](NC(=O)[C@H](CCCCN)NC(=O)[C@H](CCCCN)NC(=O)[C@H](CC(C)C)NC(=O)[C@H](CCCNC(=N)N)NC(=O)[C@H](CCCCN)NC(=O)[C@H](CCCCN)NC(=O)c1ccc2c(c1)C(=O)OC21c2ccc(O)cc2Oc2cc(O)ccc21)C(=O)N[C@@H](Cc1ccccc1)C(=O)N[C@@H](CCCCN)C(=O)N[C@@H](CCCCN)C(=O)N1CCC[C@H]1C(=O)N[C@@H](CCSC)C(=O)N[C@H](C(=O)N[C@H](C(=O)NCC(=O)N[C@H](C(=O)N[C@H](C(=O)N[C@H](C(=O)N1CCC[C@H]1C(=O)N[C@@H](Cc1ccccc1)C(N)=O)[C@@H](C)CC)[C@@H](C)O)C(C)C)[C@@H](C)CC)C(C)C [CF-Ctn[15-34]] (5FAM-KKRLKKIFKKPMVIGVTIPF-NH2) | 4.23 ± 1.02 | > 200 | > 200 | >200 | >200 | >200 | – | –
4 | CCN(CC)c1ccc2c(-c3ccccc3C(=O)N[C@@H](Cc3c[nH]c4ccccc34)C(=O)N[C@@H](CCCNC(=N)N)C(=O)N[C@@H](CCCNC(=N)N)C(=O)N[C@@H](CCCNC(=N)N)C(=O)N[C@@H](Cc3ccc(O)cc3)C(=O)N[C@@H](CCCNC(=N)N)C(=O)N[C@@H](CCCNC(=N)N)C(=O)N[C@@H](Cc3c[nH]c4ccccc34)C(=O)N[C@@H](CCCNC(=N)N)C(=O)N[C@@H](CCCNC(=N)N)C(=O)N[C@@H](CCCNC(=N)N)C(=O)N[C@@H](CCCNC(=N)N)C(=O)N[C@@H](CCCNC(=N)N)C(=O)N[C@@H](Cc3c[nH]c4ccccc34)C(=O)N[C@@H](CCCNC(=N)N)C(=O)N[C@@H](CCCNC(=N)N)C(=O)N[C@@H](CCCNC(=N)N)C(=O)N3CCC[C@H]3C(=O)N[C@@H](CCCNC(=N)N)C(=O)N[C@@H](CCCNC(=N)N)C(N)=O)c3ccc(=[N+](CC)CC)cc-3oc2c1 [RhB-vCPP2319] (RhodamineB-WRRRYRRWRRRRRWRRRPRR-NH2) | 1.13 ± 0.64 | 16.6 ± 1.31 | 4.11 ± 1.04 | 2.43 ± 0.32 | 23.88 ± 2.24 | >200 | – | –
5 | N=C(N)NCCC[C@H](NC(=O)[C@H](CCCNC(=N)N)NC(=O)[C@@H]1CCCN1C(=O)[C@H](CCCNC(=N)N)NC(=O)[C@H](CCCNC(=N)N)NC(=O)[C@H](CCCNC(=N)N)NC(=O)[C@H](Cc1c[nH]c2ccccc12)NC(=O)[C@H](CCCNC(=N)N)NC(=O)[C@H](CCCNC(=N)N)NC(=O)[C@H](CCCNC(=N)N)NC(=O)[C@H](CCCNC(=N)N)NC(=O)[C@H](CCCNC(=N)N)NC(=O)[C@H](Cc1c[nH]c2ccccc12)NC(=O)[C@H](CCCNC(=N)N)NC(=O)[C@H](CCCNC(=N)N)NC(=O)[C@H](Cc1ccc(O)cc1)NC(=O)[C@H](CCCNC(=N)N)NC(=O)[C@H](CCCNC(=N)N)NC(=O)[C@H](CCCNC(=N)N)NC(=O)[C@H](Cc1c[nH]c2ccccc12)NC(=O)c1ccc2c(c1)C(=O)OC21c2ccc(O)cc2Oc2cc(O)ccc21)C(N)=O [CF-vCPP2319] (5FAM-WRRRYRRWRRRRRWRRRPRR-NH2) | 1.26 ± 0.24 | 18.8 ± 1.87 | 4.72 ± 0.94 | >200 | >200 | >200 | – | –
6 | TF3-KKRLKKIFKKPMVIGVTIPF-amide [TF3-Ctn[15-34]] | 2.57 ± 1.37 | – | – | 102.0 ± 6.20 | >200 | >200 | 123 ± 3.84 | > 200
7 | CC[C@H](C)[C@H](NC(=O)[C@H](CCCCN)NC(=O)[C@H](CCCCN)NC(=O)[C@H](CC(C)C)NC(=O)[C@H](CCCNC(=N)N)NC(=O)[C@H](CCCCN)NC(=O)[C@H](CCCCN)NC(=O)CCCCCN1C(=CC=CC2=[N+](CC)c3ccccc3C2(C)C)C(C)(C)c2ccccc21)C(=O)N[C@@H](Cc1ccccc1)C(=O)N[C@@H](CCCCN)C(=O)N[C@@H](CCCCN)C(=O)N1CCC[C@H]1C(=O)N[C@@H](CCSC)C(=O)N[C@H](C(=O)N[C@H](C(=O)NCC(=O)N[C@H](C(=O)N[C@H](C(=O)N[C@H](C(=O)N1CCC[C@H]1C(=O)N[C@@H](Cc1ccccc1)C(N)=O)[C@@H](C)CC)[C@@H](C)O)C(C)C)[C@@H](C)CC)C(C)C [Q570-Ctn[15-34]] (X1-KKRLKKIFKKPMVIGVTIPF-NH2) | 3.08 ± 1.22 | > 200 | 144 ± 4.21 | – | – | – | – | –
8 | KKRLKKIFKKPMVIGVTIPF-NH2 [Ctn[15-34]] | 4.76 ± 1.56 | > 200 | > 200 | >200 | >200 | >200 | – | –
9 | CC[N+]1=C(C=CC=C2N(CCCCCC(=O)N[C@@H](Cc3c[nH]c4ccccc34)C(=O)N[C@@H](CCCNC(=N)N)C(=O)N[C@@H](CCCNC(=N)N)C(=O)N[C@@H](CCCNC(=N)N)C(=O)N[C@@H](Cc3ccc(O)cc3)C(=O)N[C@@H](CCCNC(=N)N)C(=O)N[C@@H](CCCNC(=N)N)C(=O)N[C@@H](Cc3c[nH]c4ccccc34)C(=O)N[C@@H](CCCNC(=N)N)C(=O)N[C@@H](CCCNC(=N)N)C(=O)N[C@@H](CCCNC(=N)N)C(=O)N[C@@H](CCCNC(=N)N)C(=O)N[C@@H](CCCNC(=N)N)C(=O)N[C@@H](Cc3c[nH]c4ccccc34)C(=O)N[C@@H](CCCNC(=N)N)C(=O)N[C@@H](CCCNC(=N)N)C(=O)N[C@@H](CCCNC(=N)N)C(=O)N3CCC[C@H]3C(=O)N[C@@H](CCCNC(=N)N)C(=O)N[C@@H](CCCNC(=N)N)C(N)=O)c3ccccc3C2(C)C)C(C)(C)c2ccccc21 [Q570-vCPP2319] (X1-WRRRYRRWRRRRRWRRRPRR-NH2) | 1.14 ± 0.34 | 16 ± 1.94 | 4.26 ± 1.03 | – | – | – | – | –
10 | WRRRYRRWRRRRRWRRRPRR-NH2 [vCPP2319] | 1.22 ± 0.52 | 20.6 ± 2.1 | 5.02 ± 1.04 | >200 | >200 | >200 | – | –
